Test results from patent US20100099762A1, “COMBINATION THERAPY” (THE MENTAL HEALTH RESEARCH INSTITUTE OF VICTORIA, priority 2006, published 2010).
Marks after values point to notes of the source that are not given here.

Assays:
[1] = oral NAC; cited from earlier work
plasma glutathione = assay: Parallel study of plasma glutathione at the trial dose of NAC; type: in vivo; details: NAC at this dose (2 g daily)
schizophrenia = assay: Randomised double blind multicentre placebo controlled trial of NAC in combination with an antipsychotic agent in schizophrenia; type: in vivo, human
Description: There is preclinical evidence of a reduction in antioxidant defences in schizophrenia, particularly a reduction in glutathione, which is a primary endogenous antioxidant defence. N-acetyl cysteine (NAC) is a bioavailable precursor of glutathione. This Example is a randomised double blind multicentre placebo controlled trial of the use of NAC in combination with an antipsychotic agent in the treatment of schizophrenia. A total of 140 individuals were randomised to receive 2 g daily of NAC in two divided doses, or placebo, together with their normal dosage of antipsychotic agent.
Participants were assigned randomly and consecutively to treatment with NAC or placebo in a double blind fashion. The randomisation log was generated by an independent individual using the traditional coin tossing method. The investigators and clinicians remained blind until data analysis was completed. The person generating the randomisation schedule was not involved in participant interviews, either for participant eligibility or outcome measurements.
All participants remained on their usual antipsychotic medication for the duration of the trial. The dose of the primary therapy was monitored. Participants were recruited through advertisements, referral by case clinicians and through database screening. All participants provided written informed consent as part of complying with the protocol.
All randomised participants received two NAC (500 mg) capsules twice daily, to a total dose of 2 g daily, or matching placebo capsules. Human dosing can be up to 5 g/day without adverse effects (Louwerse E. S. et al., 1995). A daily dose that is within the range of efficacy in published clinical trials (Adair J. C. et al., 2001, Van Schooten F. J. et al., 2002, and Behr J, et al., 2002) was selected. Once per day dosing is desirable in the drug treatment of schizophrenia, where medication compliance is known to be a challenge in management. However, steady state plasma levels cannot be achieved with a once daily oral dose of NAC as the plasma half-life is only 2-3 hours (Holdiness M. R., 1991 and Kelly G. S., 1998). While a twice-daily (BID) dosing regimen would also not be expected to achieve steady state plasma levels, dose intervals beyond BID were considered to markedly increase the risk of non-compliance in this population.
To be included, the patients were required to meet Diagnostic and Statistical Manual of Mental Disorders, fourth edition (DSM-IV) (Association AP, 1994) criteria for schizophrenia and have a PANSS total score of ≧55, or at least two items in the positive and/or negative items being >3, or have a CGI-S≧3. They needed to have the capacity to consent to the study, and be aged between 18 and 65. Both inpatients and outpatients were eligible. Participants needed to be currently taking an antipsychotic agent and to be utilising effective contraception if female and of childbearing age. Exclusion criteria included patients with abnormal renal, hepatic, thyroid or haematological findings, patients with a systemic medical disorder including asthma, allergies or any history of bronchospasm, respiratory insufficiency and recent gastrointestinal ulcers and females who were positive on pregnancy screening testing at baseline. Participants who were taking a mood stabiliser (e.g. lithium, valproate and carbamazepine) were excluded as were those currently taking drugs that are known to prevent GSH depletion (500+mg of NAC/day, 200+ug of selenium/day or 500+IU of Vitamin E/day).
Withdrawal from the trial occurred if participants ceased taking their trial medication for seven consecutive days, or ceased effective contraception, or became pregnant. A change in primary antipsychotic from one medication to another required participants to be withdrawn from the study. Similarly, the addition of a mood stabiliser required withdrawal of the participant. Dose changes to existing medications were not an exclusion criterion, and this was monitored. […]

[2] = baseline to week 8, LOCF ANCOVA
[3] = baseline to week 24, LOCF ANCOVA
[4] = baseline to week 24, LOCF ANCOVA with treatment by investigator interaction
[5] = score at week 24, end of treatment

With `CC(=O)N[C@@H](CS)C(=O)O` [NAC, N-acetyl cysteine] as the compound, how does the Plasma half-life [1] read?
The Plasma half-life was 2 to 3 h.

And the Plasma glutathione (plasma glutathione)?
The Plasma glutathione was “significantly increased”.

What about the “Number of patients with clinician-observed improvement (CGI-S), NAC group versus placebo group” value (schizophrenia; 16 weeks of treatment) of the same compound?
Its value is “more than two-fold greater”.

And the “Range of CGI-S improvement from baseline in improved subjects” value (schizophrenia; 16 weeks of treatment)?
Its value is 1-3 points.

What about the “Effects on safety parameters, including vital signs, weight and clinical biochemistry values” (schizophrenia; 24 weeks NAC 2 g daily) of the same compound?
Its value is “no significant effects”.

What about the “GAF mean overall change from baseline to endpoint, NAC treatment group” value (schizophrenia; ANCOVA, within-group) of the same compound?
The value was “+4.5 points”.

And the “PANSS scales, NAC versus placebo over all visits” value (schizophrenia; MMRM)?
The value was “did not detect a significant difference”.

What about the “PANSS-Negative items 3 and 6 over all visits” value (schizophrenia; MMRM of individual items) of the same compound?
The value was “significant (p<0.05) benefit”.

What about the “Individual PANSS items at specific visits” value (schizophrenia; MMRM of individual items, weeks 2, 4, 8, 16, 20, 24) of the same compound?
Its value is “significant (p<0.05) improvements on several items”.

What about the “GAF average improvement over all visits, NAC group” value (schizophrenia; MMRM, within-group) of the same compound?
Its value is “+3.1 points”.

What about the “CGI-S: Within NAC Group Week 8 Mean Overall Change (95% CI)” value (schizophrenia; NAC 2 g daily plus usual antipsychotic, baseline to week 8, LOCF ANCOVA) of the same compound?
Its value is −0.32 (−0.48, −0.15)**.

What about the “Mean gain in weight at week 24” value (schizophrenia; NAC group, n=33) of the same compound?
The value was 0.394 kg.

What about the “Mean weight gain at week 8” value (schizophrenia; NAC group, n=43) of the same compound?
The value was 1.372 kg.

And the “Functioning as measured by the GAF scale or the SOFAS, between groups” value (schizophrenia; NAC versus placebo)?
The value was “no between-group differences”.

And the “Effect size (Cohen's d statistic) on the BAS” value (schizophrenia; after 24 weeks of NAC treatment)?
Its value is 0.44.

What about the “BAS: Within NAC Group Week 8 Mean Overall Change (95% CI)” value (schizophrenia; akathisia, baseline to week 8, LOCF ANCOVA) of the same compound?
Its value is −0.23 (−0.58, 0.11).

What about the “BAS: Within NAC Group Week 24 Mean Overall Change (95% CI)” value (schizophrenia; akathisia, baseline to week 24, LOCF ANCOVA) of the same compound?
Its value is −0.42 (−0.77, −0.06)*.

And the “AIMS: Within NAC Group Week 8 Mean Overall Change (95% CI)” value (schizophrenia; [2])?
The value was 0.08 (−0.48, 0.65).

And the “GAF: Within NAC Group Week 8 Mean Overall Change (95% CI)” value (schizophrenia; [2])?
The value was 2.7 (0.22, 5.3)*.

And the “PANSS General: Within NAC Group Week 8 Mean Overall Change (95% CI)” value (schizophrenia; [2])?
The value was −1.7 (−3.2, −0.26)*.

And the “PANSS Negative: Within NAC Group Week 8 Mean Overall Change (95% CI)” value (schizophrenia; [2])?
Its value is −0.18 (−1.2, 0.82).

What about the “PANSS Positive: Within NAC Group Week 8 Mean Overall Change (95% CI)” value (schizophrenia; [2]) of the same compound?
Its value is −1.6 (−2.6, −0.64)*.

And the “PANSS Total: Within NAC Group Week 8 Mean Overall Change (95% CI)” value (schizophrenia; [2])?
The value was −3.6 (−6.3, −0.90)*.

And the “SAS: Within NAC Group Week 8 Mean Overall Change (95% CI)” value (schizophrenia; [2])?
Its value is −0.05 (−0.30, 0.21).

What about the “SOFAS: Within NAC Group Week 8 Mean Overall Change (95% CI)” value (schizophrenia; [2]) of the same compound?
Its value is −0.25 (−3.5, 3.0).

And the “AIMS: Within NAC Group Week 24 Mean Overall Change (95% CI)” value (schizophrenia; [3])?
Its value is −0.44 (−1.03, 0.16).

What about the “CGI-S: Within NAC Group Week 24 Mean Overall Change (95% CI)” value (schizophrenia; [3]) of the same compound?
Its value is −0.35 (−0.56, −0.14)*.

What about the “GAF: Within NAC Group Week 24 Mean Overall Change (95% CI)” value (schizophrenia; [3]) of the same compound?
Its value is 4.5 (1.5, 7.5)*.

And the “PANSS Positive: Within NAC Group Week 24 Mean Overall Change (95% CI)” value (schizophrenia; [3])?
The value was −2.3 (−3.49, −1.09)**.

What about the “SAS: Within NAC Group Week 24 Mean Overall Change (95% CI)” value (schizophrenia; [3]) of the same compound?
Its value is −0.17 (−0.46, 0.13).

And the “SOFAS: Within NAC Group Week 24 Mean Overall Change (95% CI)” value (schizophrenia; [3])?
The value was −0.69 (−4.99, 3.6).

What about the “PANSS General: Within NAC Group Week 24 Mean Overall Change (95% CI)” value (schizophrenia; [4]) of the same compound?
Its value is −4.4 (−6.39, −2.48)^d**.

And the “PANSS Negative: Within NAC Group Week 24 Mean Overall Change (95% CI)” value (schizophrenia; [4])?
The value was −1.6 (−2.71, −0.46)^d.

What about the “PANSS Total: Within NAC Group Week 24 Mean Overall Change (95% CI)” value (schizophrenia; [4]) of the same compound?
Its value is −8.8 (−12.2, −5.5)^d**.

What about the “Adverse events, NAC group compared to placebo group” value (schizophrenia; checklist of 44 somatic items) of the same compound?
The value was “No reported event was significantly more common”.

What about the “Eye irritation, NAC treatment group compared to placebo” value (schizophrenia; checklist of 44 somatic items) of the same compound?
The value was “significantly less”.

What about the “SAS or AIMS scores, placebo versus NAC over all visits” value (schizophrenia; over all visits) of the same compound?
The value was “no significant differences”.

What about the “CGI-I: Within NAC Group Week 8 Mean (95% CI)” value (schizophrenia; score at that time point (no baseline score), week 8, NAC 2 g daily plus antipsychotic) of the same compound?
Its value is 3.1 (2.9, 3.4).

What about the “CGI-I: Within NAC Group Week 24 Mean (95% CI)” value (schizophrenia; score at that time point (no baseline score), week 24) of the same compound?
Its value is 2.9 (2.6, 3.1).

What about the “CGI-I: NAC Mean (95% CI) at post-treatment discontinuation” value (schizophrenia; score at that time point, washout, week 28) of the same compound?
Its value is 2.9 (2.5, 3.4).

And the “AIMS: NAC Mean Week 24 (SD)” value (schizophrenia; [5])?
The value was 2.2 (3.5).

And the “BAS: NAC Mean Week 24 (SD)” value (schizophrenia; [5])?
The value was 0.42 (0.93).

What about the “CGI-I: NAC Mean Week 24 (SD)” value (schizophrenia; [5]) of the same compound?
The value was 2.9 (0.93).

And the “CGI-S: NAC Mean Week 24 (SD)” value (schizophrenia; [5])?
The value was 3.5 (1.0).

What about the “GAF: NAC Mean Week 24 (SD)” value (schizophrenia; [5]) of the same compound?
The value was 54.4 (15.4).
